Data on 3 compounds can be found in PubChem BioAssay AID2060363 (Molecular Pharmacology Branch, DTP, NCI, 2025).

The structures appear in SMILES notation. pIC50: −log10 of the molar value. “And” between values parts separate entries of the source, which are not always exact repeats. Equal entries are not always repeated.

For this experiment, the system named is 156681-154-R-J1-PDC tumor spheroids, viability % test/control. As to the kind of experiment: Anticancer human tumor 156681-154-R-J1-PDC patient-derived melanoma cell line growth inhibition [TAK]. The conditions noted are these: spheroids with HUVEC and MSC; for viability, T/C: stronger effect = lower value. From the text: Combinatorial screen of targeted agents with TAK-243 and ipatasertib in multi-cell type tumor spheroids
A high-throughput screen of multi-cell type tumor spheroids was designed to identify active combinations of targeted small molecules and TAK-243 or ipatasertib. Complex spheroids include a stromal component modeled by human endothelial cells (HUVEC) and fibroblasts modeled by human mesenchymal stem cells (MSCs). The concentration ranges selected for each drug and investigational agent were based upon clinically achievable concentrations if the clinical Cmax of the agent was known.
Compounds. The drugs and investigational agents: TAK-243 (785004), ipatasertib (767898), everolimus (733504), selumetinib (741078), bortezomib (756655), trametinib (758246), ixazomib (758254), vemurafenib (761431), dabrafenib (764134), sapanisertib (764658), alpelisib (765974), and copanlisib (816437), were obtained from the National Cancer Institute (NCI) Developmental Therapeutics Program Chemical Repository. The FDA-approved anticancer drug set is available from the NCI Developmental Therapeutics Program. […] The stock solutions were prepared in dimethyl sulfoxide (DMSO, Sigma-Aldrich, St. Louis, MO, cat. D2650) at 800-fold the tested concentration and stored at -70 degrees C prior to their use. All drugs and investigational agents were tested over a range starting from a high concentration at or near the clinical Cmax and decreasing in half-log increments. If the clinical Cmax for an agent had not been determined, the highest concentration tested was 10 microM.
NCI60 Cell Culture. NCI60 cell lines were obtained from the NCI Developmental Therapeutics Program Tumor Repository. For each lot of cells, the Repository performed Applied Biosystems AmpFLSTR Identifiler testing with PCR amplification to confirm consistency with the published Identifier STR profile for each cell line. Cells were kept in continuous culture for no more than 20 passages. The optimal seeding densities for each of the cell lines at each time point assessed were determined prior to performing the concentration response studies. Briefly, the NCI60 human tumor lines were grown as monolayers in RPMI 1640 medium supplemented with 10% FBS and 2 mmol/L L-glutamine.
An additional 2 lines were from the NCI60 cell line panel including melanomas, MALME-3M and SK-MEL-2. Pooled donor human umbilical vein endothelial cells (HUVEC, Lonza, cat. CC-2519) and human mesenchymal stem cells (hMSC, Lonza, cat. PT-2501) were purchased from Lonza (Walkersville, MD).
PDMR cell lines were grown in complete medium (DC medium): Dulbecco's modified Eagle's medium (DMEM)/F12 supplemented with 5% fetal bovine serum (FBS), 2 mM L-glutamine, 100 U/mL penicillin and 100 µg/ml streptomycin, 0.4 µg/ml hydrocortisone, 10 ng/ml epidermal growth factor (EGF) recombinant human protein, 24 µg/mL adenine, and 0.1 mg/mL primocin. During culture from frozen stock vials, PDMR cells were cultured in the same medium containing 10 µM Y-27632 (see Table 3). The PDCs were cultured in complete DMEM/F12 media without 10 microM Y-27632 dihydrochloride for at least two passages prior to the screen. The pooled donor HUVEC and hMSC were cultured in endothelial cell growth medium 2 (PromoCell, Heidelberg, Germany, cat. C-22011) and mesenchymal stem cell growth medium 2 (PromoCell, cat. C-28009), respectively. For all experiments, HUVEC and hMSC were used at passages </=5.
For the pre-screen, cell seeding densities were determined from a titration spanning the range from 5,000 to 313 cells per well. The mct-spheroids including 60% malignant cells, 25% HUVEC and 15% MSC dispensed as a mixture into U-bottom Ultra-Low Attachment 384-well plates (Corning, NY)
High-throughput Drug Combination Screening.
Prior to their inoculation into 384-well plates, malignant cells, HUVEC, and hMSC were removed from T flasks using TrypLE express (Thermo Fisher Scientific, cat. 12605036) and harvested by centrifugation for 5 min at 233 x g. […]
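Also: spheroids exposed to compounds for 7 days before the endpoint.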

Regarding `CC(C)CC(NC(=O)CNC(=O)c1cc(Cl)ccc1Cl)B1OC(=O)CC(CC(=O)O)(C(=O)O)O1` (centres undefined), the viability, T/C (usually the ratio of treated to control) is 104% and 94.9% (compound 0.000316 µM); 101% and 104% (compound 0.001 µM); 99.5% and 101% (compound 0.00316 µM); 95.7% and 90.9% (compound 0.01 µM); 18.1% and 10.3% (compound 0.0316 µM); 0.44% and 0.46% (compound 0.1 µM). The pIC50 (in general, the negative decadic logarithm of the IC50, by convention in mol/L) (curve of compound) is 7.71 and 7.75.

As for `CC(C)n1nc(-c2ccc3oc(N)nc3c2)c2c(N)ncnc21`, the viability, T/C runs as follows: (compound 0.000316 µM) 97.2% and 94.8%; (compound 0.001 µM) 95.3% and 91.7%; (compound 0.00316 µM) 81.4% and 96.3%; (compound 0.01 µM) 80.2% and 86.3%; (compound 0.0316 µM) 48% and 56.1%; (compound 0.1 µM) 33.3% and 34.1%. Moreover, the pIC50 (curve of compound) is 7.47 and 7.36.

Take `Cn1cnc2c(F)c(Nc3ccc(Br)cc3Cl)c(C(=O)NOCCO)cc21` + CC(C)NCC(C(=O)N1CCN(c2ncnc3c2C(C)CC3O)CC1)c1ccc(Cl)cc1: the pIC50 is, setting by setting: (curve of first compound, second compound 0.3 µM) 6.22; (curve of first compound, second compound 0.949 µM) 6.31; (curve of first compound, second compound 3 µM) 6.48; (curve of first compound, second compound 9.49 µM) greater than 8.02; (curve of first compound, second compound 30 µM) greater than 8.02. Further, the viability, T/C was 96.6% (second compound 0.3 µM, first compound 0.00949 µM); 97% (second compound 0.3 µM, first compound 0.03 µM); 83.8% (second compound 0.3 µM, first compound 0.0949 µM); 81.2% (second compound 0.3 µM, first compound 0.3 µM); 30% (second compound 0.3 µM, first compound 0.949 µM); 9.69% (second compound 0.3 µM, first compound 3 µM). Besides, the viability, T/C is 81.1% (second compound 0.949 µM, first compound 0.00949 µM); 78.3% (second compound 0.949 µM, first compound 0.03 µM); 86.2% (second compound 0.949 µM, first compound 0.0949 µM); 71.3% (second compound 0.949 µM, first compound 0.3 µM); 21.4% (second compound 0.949 µM, first compound 0.949 µM); 7.25% (second compound 0.949 µM, first compound 3 µM). For the same compound, the viability, T/C reads like this: (second compound 3 µM, first compound 0.00949 µM) 69.1%; (second compound 3 µM, first compound 0.03 µM) 73.4%; (second compound 3 µM, first compound 0.0949 µM) 68.6%; (second compound 3 µM, first compound 0.3 µM) 53.6%; (second compound 3 µM, first compound 0.949 µM) 13.1%; (second compound 3 µM, first compound 3 µM) 4.67%. In addition, the viability, T/C runs as follows: (second compound 9.49 µM, first compound 0.00949 µM) 43.3%; (second compound 9.49 µM, first compound 0.03 µM) 44.8%; (second compound 9.49 µM, first compound 0.0949 µM) 36.6%; (second compound 9.49 µM, first compound 0.3 µM) 24.6%; (second compound 9.49 µM, first compound 0.949 µM) 7.73%; (second compound 9.49 µM, first compound 3 µM) 1.63%. Moreover, the viability, T/C is 20.6% (second compound 30 µM, first compound 0.00949 µM); 17.8% (second compound 30 µM, first compound 0.03 µM); 15.7% (second compound 30 µM, first compound 0.0949 µM); 10.4% (second compound 30 µM, first compound 0.3 µM); 2.66% (second compound 30 µM, first compound 0.949 µM); 0.54% (second compound 30 µM, first compound 3 µM).
